According to US20060166189A1, “Methods for detecting invasion of a cell” (priority 2002, published 2006):

System: HeLa cells
Type: cell-based

cytosine arabinose [Ara C]
effect on β-galactosidase expression from vSC8 (late vaccinia promoter P11): completely blocked
